SMILES strings stand for the structures.

This assay can be described thus: Anti-HIV Activity: Previously, a series of two-fold dilution on test samples were carried out in a 96-well plate (50 μL/well). Two plates were made for measuring anti-HIV activity and measuring cytotoxicity. For each agent, measurement in duplicate was carried out. An MT-4 cell suspension of 2.5×10^5/mL was dispensed at 100 μL/well onto the 96-well plate containing the test samples. An HIV virus solution was dispensed at 50 μL/well onto the 96-well plate containing the test samples and the cell. To the plate for measuring cytotoxicity, a culture solution was dispensed at 50 μL/well. It was mixed by a plate mixer, and then incubated in a CO2 incubator for 4 days. […] Thirty microliters of a MTT (3-(4,5-dimethylthiazol-2-yl)-2,5-diphenyltetrazolium bromide) solution was dispensed to each well.A reaction was allowed to occur in a CO2 incubator for an hour. From each well, 150 μL of the supernatant was removed such that cells are not sucked. One-hundred and fifty microliters of a cell lysis solution was added thereto, and then it was mixed well by a plate mixer until the whole cells are lysed. The mixed 96-well plates were measured by a microplate reader at two wavelengths, 560 nm/690 nm. Based on the following calculation formula, 50% HIV inhibition concentration (EC50) was calculated. As to conditions: MT4.
What is called EC50 is the concentration that produces a half-maximal response. For the compound `C[C@H]1CCN(C2CC2)[C@@H]2Cn3cc(-c4nnc(Cc5ccc(F)cc5F)s4)c(=O)c(OCc4ccccc4)c3C(=O)N12`, the half-maximal effective concentration (EC50) was 3 nM.
The value for `C[C@H]1CCO[C@@H]2Cn3cc(-c4nnc(Cc5ccc(F)cc5F)s4)c(=O)c(O)c3C(=O)N12` was 2.1 nM; that for `C[C@H]1CCO[C@@H]2Cn3cc(-c4nnc(Cc5c(F)cc(F)cc5F)s4)c(=O)c(O)c3C(=O)N12` was 1.4 nM; that for `COCCN1CN(CC(C)C)n2cc(C(=O)NNC(=S)Cc3ccc(F)cc3F)c(=O)c(O)c2C1=O` was 3.4 nM.
The value for `CCN1CN(CCOC)C(=O)c2c(O)c(=O)c(-c3ncc(Cc4cccc(Cl)c4F)s3)cn21` was 8.7 nM; that for `C[C@@H]1C[C@@H](C)N2C(=O)c3c(O)c(=O)c(-c4nnc(Cc5ccc(F)cc5F)s4)cn3C[C@@H]2O1` was 2.7 nM; that for `O=C1c2c(O)c(=O)c(-c3ncc(Cc4ccc(F)cc4F)s3)cn2C[C@@H]2CCCCN12` was 11 nM.
The value for `C[C@@H]1CCC2C(=O)c3c(O)c(=O)c(-c4ncc(Cc5ccc(F)cc5F)s4)cn3C[C@@H]2O1` (stereo partly specified) was 7.4 nM.
For the compound `C[C@H]1CCO[C@@H]2Cn3cc(-c4nnc(Cc5ccc(F)c(Cl)c5F)s4)c(=O)c(O)c3C(=O)N12`, the EC50 is 2.3 nM.
The value for `C[C@@H]1C[C@@H](C)N2C(=O)c3c(O)c(=O)c(-c4nnc(Cc5cccc(Cl)c5F)s4)cn3C[C@@H]2O1` was 2.8 nM; that for `O=C1c2c(O)c(=O)c(-c3nnc(Cc4ccc(F)cc4F)s3)cn2C[C@H]2O[C@@H]3CCC[C@@H]3N12` was 1.6 nM.
